Experiment: xn = mol fraction of the nth substance listed
Conditions: 100 kPa, Liquid; for viscosity: Falling or rolling sphere viscometry; for mass density: Vibrating tube method

CCCCCCCCCCC [undecane] + CCCCCO
Conditions | mass density [kg/m3] | viscosity [mPa·s]
283.15 K, x1 = 0.0999 | 808.13 | 4.269
283.15 K, x1 = 0.2 | 796.68 | 3.406
283.15 K, x1 = 0.3026 | 786.76 | 2.731
283.15 K, x1 = 0.4001 | 778.65 | 2.21
283.15 K, x1 = 0.5022 | 771.41 | 1.884
283.15 K, x1 = 0.5976 | 765.49 | 1.694
283.15 K, x1 = 0.6984 | 760.02 | 1.551
283.15 K, x1 = 0.801 | 755.27 | 1.452
283.15 K, x1 = 0.8822 | 751.87 | 1.413
283.15 K, x1 = 1 | 747.78 | 1.371
288.15 K, x1 = 0.0999 | 804.49 | 3.679
288.15 K, x1 = 0.2 | 792.98 | 2.958
288.15 K, x1 = 0.3026 | 783.04 | 2.39
288.15 K, x1 = 0.4001 | 774.92 | 1.945
288.15 K, x1 = 0.5022 | 767.66 | 1.689
288.15 K, x1 = 0.5976 | 761.74 | 1.535
288.15 K, x1 = 0.6984 | 756.3 | 1.419
288.15 K, x1 = 0.801 | 751.55 | 1.335
288.15 K, x1 = 0.8822 | 748.15 | 1.287
288.15 K, x1 = 1 | 744.06 | 1.249
293.15 K, x1 = 0.0999 | 800.81 | 3.187
293.15 K, x1 = 0.2 | 789.27 | 2.58
293.15 K, x1 = 0.3026 | 779.3 | 2.103
293.15 K, x1 = 0.4001 | 771.17 | 1.743
293.15 K, x1 = 0.5022 | 763.91 | 1.529
293.15 K, x1 = 0.5976 | 757.99 | 1.404
293.15 K, x1 = 0.6984 | 752.55 | 1.308
293.15 K, x1 = 0.801 | 747.81 | 1.236
293.15 K, x1 = 0.8822 | 744.41 | 1.176
293.15 K, x1 = 1 | 740.35 | 1.145
298.15 K, x1 = 0.0999 | 797.12 | 2.777
298.15 K, x1 = 0.2 | 785.54 | 2.26
298.15 K, x1 = 0.3026 | 775.54 | 1.862
298.15 K, x1 = 0.4001 | 767.4 | 1.571
298.15 K, x1 = 0.5022 | 760.13 | 1.395
298.15 K, x1 = 0.5976 | 754.22 | 1.295
298.15 K, x1 = 0.6984 | 748.78 | 1.214
298.15 K, x1 = 0.801 | 744.05 | 1.153
298.15 K, x1 = 0.8822 | 740.67 | 1.08
298.15 K, x1 = 1 | 736.64 | 1.062
303.15 K, x1 = 0.0999 | 793.4 | 2.428
303.15 K, x1 = 0.2 | 781.78 | 1.995
303.15 K, x1 = 0.3026 | 771.75 | 1.656
303.15 K, x1 = 0.4001 | 763.6 | 1.428
303.15 K, x1 = 0.5022 | 756.32 | 1.283
303.15 K, x1 = 0.5976 | 750.42 | 1.202
303.15 K, x1 = 0.6984 | 745 | 1.095
303.15 K, x1 = 0.801 | 740.28 | 1.026
303.15 K, x1 = 0.8822 | 736.92 | 0.999
303.15 K, x1 = 1 | 732.93 | 0.982
308.15 K, x1 = 0.0999 | 789.65 | 2.136
308.15 K, x1 = 0.2 | 777.98 | 1.768
308.15 K, x1 = 0.3026 | 767.93 | 1.481
308.15 K, x1 = 0.4001 | 759.77 | 1.29
308.15 K, x1 = 0.5022 | 752.5 | 1.153
308.15 K, x1 = 0.5976 | 746.6 | 1.062
308.15 K, x1 = 0.6984 | 741.2 | 0.998
308.15 K, x1 = 0.801 | 736.49 | 0.951
308.15 K, x1 = 0.8822 | 733.14 | 0.922
308.15 K, x1 = 1 | 729.23 | 0.91
313.15 K, x1 = 0.0999 | 785.86 | 1.887
313.15 K, x1 = 0.2 | 774.15 | 1.572
313.15 K, x1 = 0.3026 | 764.08 | 1.33
313.15 K, x1 = 0.4001 | 755.91 | 1.17
313.15 K, x1 = 0.5022 | 748.64 | 1.058
313.15 K, x1 = 0.5976 | 742.76 | 0.976
313.15 K, x1 = 0.6984 | 737.36 | 0.924
313.15 K, x1 = 0.801 | 732.67 | 0.881
313.15 K, x1 = 0.8822 | 729.34 | 0.859
313.15 K, x1 = 1 | 725.53 | 0.847
318.15 K, x1 = 0.0999 | 782.03 | 1.675
318.15 K, x1 = 0.2 | 770.28 | 1.409
318.15 K, x1 = 0.3026 | 760.19 | 1.2
318.15 K, x1 = 0.4001 | 752.02 | 1.065
318.15 K, x1 = 0.5022 | 744.75 | 0.972
318.15 K, x1 = 0.5976 | 738.88 | 0.902
318.15 K, x1 = 0.6984 | 733.51 | 0.856
318.15 K, x1 = 0.801 | 728.83 | 0.819
318.15 K, x1 = 0.8822 | 725.53 | 0.801
318.15 K, x1 = 1 | 721.82 | 0.79
323.15 K, x1 = 0.0999 | – | 1.468
323.15 K, x1 = 0.2 | – | 1.266
323.15 K, x1 = 0.3026 | – | 1.087
323.15 K, x1 = 0.4001 | – | 0.974
323.15 K, x1 = 0.5022 | – | 0.896
323.15 K, x1 = 0.5976 | – | 0.836
323.15 K, x1 = 0.6984 | – | 0.796
323.15 K, x1 = 0.801 | – | 0.764
323.15 K, x1 = 0.8822 | – | 0.748
323.15 K, x1 = 1 | – | 0.74

From the NIST ThermoML archive (doi:10.1021/acs.jced.6b00121)
